{"source": "patent EP4578861A1", "about": "“NOVEL TRICYCLIC HETEROCYCLIC CARBALDEHYDE COMPOUND AND PHARMACEUTICAL COMPOSITION, CONTAINING SAME, FOR IRE1ALPHA INHIBITION” (Hanmi Pharm. Co., Ltd., priority 2022, dated 2024)", "system": "spliced XBP1", "assay": "Spliced XBP1 mRNA measurement test (RT-PCR, tunicamycin-induced ER stress in MCF-7 cells)", "format": "cell-based", "conditions": "compound pre-treated for 1 hour, then 2 µg/mL tunicamycin for 6 or 24 hours, spliced XBP1 corrected by total XBP1", "experimental": "With respect to these synthetic compounds, reverse transcription polymerase chain reaction (RT-PCR) experiments were conducted on MCF-7 cancer cells to confirm the effect thereof on the mRNA and protein amounts of spliced XBP1, which is the target of IRE endonuclease. A reverse transcription polymerase chain reaction is a test method in which RNA is extracted from cells, reverse transcriptase is used to make cDNA, and relative mRNA expression level is measured through a polymerase chain reaction.\nBriefly, MCF-7 cells were seeded in a 12-well plate and cultured in an incubator including 5% CO2 for one day. On the next day, compounds, which were 10-fold serially diluted from 10,000 nM, were pre-treated for 1 hour, and then, treated with 2 µg/mL tunicamycin for 6 or 24 hours to induce endoplasmic reticulum stress, followed by cell lysis to obtain RNA. RNA was subjected to the procedure of RNeasy Kits (Qiagen, 74106), and 5 µg of RNA sample was dissolved in a sample including reverse transcriptase and dNTP, and reverse transcription reaction was performed with a thermal cycler. The amount of mRNA of each of spliced XBP1 and total XBP1 was measured by a polymerase chain reaction through real time PCR by mixing each cDNA sample with a PCR reaction mixture including a primer pair capable of binding specifically to each target and SYBR green dye. The expression level of spliced XBP1 was corrected by the total expression level of XBP1, and the relative expression levels of spliced XBP1 between samples were compared and analyzed."}
{"compound": "COc1cc2c(C)c(CC(=O)N3CCOCC3)c(=O)oc2c(C=O)c1O", "note": "[MKC8866, reference compound]", "values": [{"measurement": "IC50", "value": "< 100", "unit": "nM"}]}
